Laboratory results reported in patent US8354395B2, “Method for providing neuroprotection from spinal muscular atrophy” (Trophos, priority 2003, dated 2013).

Experiments:
[1] = test system: rat motor neurons; assay: in vitro model of trophic deprivation of rat motor neurons (survival, calcein fluorescence); format: cell-based; details: 3 days in basal medium, compared with medium supplemented with neurotrophic factors, ratio > 0 = positive effect
Description: The spinal cord of E14 rat embryos is dissected and the ventral part is isolated by trituration after trypsination. […] The cells are centrifuged on a density gradient. The motor neurons are enriched in the fraction of the large cells (the least dense). The cells of this fraction are incubated with an anti-p75 antibody, a surface antigen present on the motor neurons. Secondary antibodies coupled with magnetic balls are added and the mixture of cells is passed through a column in a magnet (Arce et al., 1999). Only the motor neurons are retained: their purity is of the order of 90%.
The motor neurons are inoculated at low density in culture wells on a substrate of polyornithine-laminin in a neurobasal medium supplemented according to Raoul et al., 1999, Programmed cell death of embryonic motor neurons triggered through the Fas death receptor. […] Negative controls (absence of trophic factors) and positive controls (in the presence of BDNF (Brain-Derived Neurotrophic Factor) at 1 ng/ml, GDNF (Glial-Derived Neurotrophic Factor) at 1 ng/ml and CNTF (Ciliary Neurotrophic Factor) at 10 ng/ml, marketed by the American company PEPROTECH, Inc. and the Sigma-Aldrich company, are included in each series.
The compounds to be tested are added 60 minutes after the inoculation and the cultures are maintained at 37° C. under 5% CO2 for 3 days.
After 3 days, the survival is evaluated by a fluorescence measurement after incubation of the cells in the presence of calcein which becomes fluorescent in the living cells.
The activity of the compounds to be tested was evaluated according to their capacity to prevent the death of the motor neurons when they are added to the neurobasal medium compared with the survival of the motor neurons in medium supplemented with neurotrophic factors.
This survival rate is expressed by a number, the ratio.

[2] = test system: striatal neurons expressing truncated mutated huntingtin; assay: protection of striatal neurons from death induced by overexpression of a mutated form of huntingtin; format: cell-based; details: 1 μM in 0.5% DMSO; 7 days; compared with medium supplemented with BDNF
Description: Primary cultures of striatal neurons are prepared as described in the literature (Primary striatal neuronal culture, Mao L. et al., Methods Mol. Med., 2003, 79:379-86). […] A second expression vector containing the DNA coding the green fluorescent protein (GFP) also undergoes electroporation and serves as a reporter gene. The DNA of the plasmid coding the huntingtin was prepared by purification with cesium chloride. The plasmid containing the GFP sequence was prepared on Qiagen columns. The integrity of the DNA sequences is verified by sequencing, transfection and western blotting. The cells which survive the electroporation are inoculated at a density of 4000 cells per well of a 96-well plate. The culture takes place in Neurobasal medium (GIBCO) complimented with pyruvate and B-27 (Beckton Dickinson). The cells are maintained in culture for 7 days without changing the medium.
The treatments with the compounds to be tested are carried out just after the inoculation at a final concentration of 1 μM in 0.5% of dimethyl sulphoxide (DMSO). The positive controls are carried out by the addition of BDNF at 5 ng/ml final. The negative controls only receive 0.5% DMSO.
Cell death is evaluated after the 7 days by counting the number of living cells expressing the GFP.
The activity of the compounds to be tested was evaluated by their capacity to prevent the death of the striatal neurons cultured in the neurobasal medium compared with the survival of the striatal neurons in medium supplemented with BDNF (Brain-Derived Neurotrophic Factor).

[3] = test system: GABAA receptors; assay: electrophysiology in vitro with rat neurons (slices of hippocampus on MEA, sensitive neurons in patch clamp); format: cell-based; details: for effect on the stimulating GABAA transmission (postsynaptic field potentials, CA1): slices of hippocampus, 20 μM bicuculline, 50 μM picrotoxin, 1-10 μM diazepam, 10-1000 nM steroids
Description: Electrophysiological experiments were carried out in vitro with rat neurons (slices of hippocampus, neurons sensitive in culture), as follows:
The experiments are carried out with hippocampi removed from rats of the Sprague Dawley strain aged from 10 to 21 days. The animals are sacrificed by decapitation, and their brain is rapidly transferred into ACSF (Artificial Cerebro-Spinal Fluid) without sodium (composition: 2 mM KCl, 1.2 mM NaH2PO4, 2 mM MgCl2, 0.5 mM CaCl2, 26 mM NaHCO3, 11 mM glucose, 250 mM saccharose), maintained at a temperature of 4° C. and carbogen (a 95% O2, 5% CO2 mixture) is bubbled through. The hippocampi are extracted from each cerebral hemisphere then cut up into slices of […] thickness using a “tissue chopper”. The slices are left to rest in ACSF medium (composition: 126 mM NaCl, 2 mM KCl, 1.2 mM NaH2PO4, 2 mM MgCl2, 0.5 mM CaCl2, 26 mM NaHCO3, 11 mM glucose) at ambient temperature, at least one hour before recording. Using a pipette, one slice is then deposited on a multi-electrode recording system (MEA, MultiChannel Systems™, Germany) and positioned so as to cover the […]. In order to avoid any change in position by the perfusion flow, a grid weighted down by a platinum <<U>> is positioned on the slice. The MEA is then rapidly inserted into the recording system and the chamber perfused with ACSF with carbogen bubbled through; the middle of the chamber is connected to earth. The perfused ACSF as well as the MEA are maintained at a temperature of 37° C. One of the 60 electrodes is selected as a stimulation electrode. A biphasic stimulation current with an intensity of 300 μA over 0.1 ms is generated from this electrode at a rate of one stimulation every 30 seconds. The responses produced are seen simultaneously at the level of the 59 other electrodes of the MEA. The axons of the Schaeffer collaterals are stimulated in the CA3. In the CA1 region, 6 to 12 electrodes are selected in order to record the field potentials which correspond to the sum of the variations of the postsynaptic potentials of the neurons situated close to each electrode. The molecules tested are dissolved in the ACSF medium (the final concentration of DMSO is ≦0.1%) and carried over onto the slice by means of the perfusion system.
The sensitive rat neurons are cultured for 1 to 2 days and then recorded with the patch clamp technique as described in De Roo M. et al. (Dehydroepiandrosterone potentiates native ionotropic ATP receptors containing the P2X2 subunit in rat sensory neurones, J Physiol, 2003, 552:59-71).

[4] = toxicological study in mice; format: in vivo; details: oral, sub-cutaneous, intra-peritoneal and intravenous routes, up to 300 mg/kg/day, daily up to 28 days
[5] = test system: motor neurons of the nucleus of the facial nerve; assay: axotomy of the facial nerve in new-born rats, count of motor neurons of the facial nucleus; format: in vivo, rat; details: axotomized new-born rats; dose between 3 and 100 mg/kg according to the administration route; compared with the nerve which is not sectioned
Description: An axotomy of the facial nerve is performed on new-born young rats of 2-3 days old. The animals receive the cholest-4-en-3-one oxime 4 hours before the unilateral section of the nerve then daily for 5 days by sub-cutaneous route. Seven days after the section of the nerve, the animals are anaesthetized, then fixed by intra-cardial perfusion of paraformaldehyde. The brain is then removed and placed in paraffin. The histological analysis of compound sections of 7 μm of the nucleus of the facial nerve, stained with cresyl violet, allows the number of motor neurons of the intact side as well as of the side of the nerve which has been sectioned to be counted (Casanovas et al., Prevention by lamotrigine, MK-801 and N omega-nitro-L-arginine methyl ester of motoneuron cell death after neonatal axotomy, Neuroscience, 1996, 71, 313-325).

## CC(C)CCC[C@@H](C)[C@H]1CC[C@H]2[C@@H]3CCC4=CC(=NO)C=C[C@]4(C)[C@H]3CC[C@]12C [Compound 2, 1,4-cholestadien-3-one oxime]
[1]; 5 μM
  Ratio (survival rate of the motor neurons): 0.6

## CC(C)CCC[C@@H](C)[C@H]1CC[C@H]2[C@@H]3C=C[C@H]4CC(=O)CC[C@]4(C)[C@H]3CC[C@]12C [Compound 11, 5-alpha-cholest-6-en-3-one]
[2]
  Ratio (survival of striatal neurons): 0.3

## CC(C)C(C)C=C[C@@H](C)[C@H]1CC[C@H]2[C@@H]3C=CC4=CC(=O)CC[C@]4(C)[C@H]3CC[C@]12C (stereo partly shown) [Compound 12, 24-methylcholest-4,6,22-trien-3-one]
[2]
  Ratio (survival of striatal neurons): 0.3

## CN1C(=O)CN=C(c2ccccc2)c2cc(Cl)ccc21 [diazepam]
[3]
  effect on the stimulating GABAA transmission (postsynaptic field potentials, CA1): potentialized

## CC(C)=CCC[C@@H](C)[C@H]1CC[C@H]2[C@@H]3CCC4=CC(=O)CC[C@]4(C)[C@H]3CC[C@]12C [Compound 4, Cholest-4,24-dien-3-one]
[2]
  Ratio (survival of striatal neurons): 0.2

## CC[C@H](CC[C@@H](C)[C@H]1CC[C@H]2[C@@H]3CCC4=CC(=NO)CC[C@]4(C)[C@H]3CC[C@]12C)C(C)C [Compound 8, 4-stigmasta-ene-3-one oxime]
[1]; 10 μM
  Ratio (survival rate of the motor neurons): 0.3

## CC(C)=CCC[C@@H](C)[C@H]1CC[C@H]2[C@@H]3CCC4=CC(=NO)CC[C@]4(C)[C@H]3CC[C@]12C [Compound 6, 4,24-cholestadien-3-one oxime]
[1]; 5 μM
  Ratio (survival rate of the motor neurons): 0.5

## CC(C)CCC[C@@H](C)[C@H]1CC[C@H]2[C@@H]3CC[C@]4(O)CC(=O)CC[C@]4(C)[C@H]3CC[C@]12C [Compound 9, 5-beta-hydroxy-cholestan-3-one]
[1]; 1 μM
  Ratio (survival rate of the motor neurons): 0.5
[2]
  Ratio (survival of striatal neurons): 0.5

## C[C@]12CC[C@@H](O)C[C@@H]1CC[C@@H]1[C@@H]2CC[C@]2(C)[C@@H](C(=O)CO)CC[C@@H]12 [tetrahydrodeoxycorticosterone]
[3]
  effect on the stimulating GABAA transmission (postsynaptic field potentials, CA1): potentialized

## CC(C)CCC[C@@H](C)[C@H]1CC[C@H]2[C@@H]3C=CC4=CC(=NO)C=C[C@]4(C)[C@H]3CC[C@]12C [Compound 17, 1.4,6-cholesta-trien-3-one oxime]
[1]; 5 μM
  Ratio (survival rate of the motor neurons): 0.3

## CC(C)CC=C[C@@H](C)[C@H]1CC[C@H]2[C@@H]3CCC4=CC(=NO)CC[C@]4(C)[C@H]3CC[C@]12C [Compound 7, 4,22-cholestadien-3-one oxime]
[1]; 6 μM
  Ratio (survival rate of the motor neurons): 0.25

## CC(=O)[C@H]1CC[C@H]2[C@@H]3CC[C@H]4C[C@H](O)CC[C@]4(C)[C@H]3CC[C@]12C [allopregnanolone, 3α-hydroxy-5α-pregnan-20-one]
[3]; sensitive neurons, patch-clamp
  effect on chlorine currents produced by isoguvacine: potentialized
[3]
  effect on the stimulating GABAA transmission (postsynaptic field potentials, CA1): potentialized

## CC(C)CCC[C@@H](C)[C@H]1CC[C@H]2[C@@H]3CCC4=CC(=NO)CC[C@]4(C)[C@H]3CC[C@]12C [Compound 1, Cholest-4-en-3-one oxime]
[4]
  toxicity: did not show significant toxicity
[5]
  increase of survival of the motor neurons of the nucleus of the facial nerve: up to 40%
[3]; allopregnanolone or tetrahydrodeoxycorticosterone as modulators, dose-dependent, concentrations equivalent to those with neurotrophic effects in vitro
  blocking of the effect of positive allosteric modulators of the GABAA receptors: capable of blocking
[3]; tested alone up to 10 μM, slice of hippocampus or sensitive neurons
  effect on the GABAA receptors, compound alone: no effect
[1]; 5 μM
  Ratio (survival rate of the motor neurons): 1
[2]
  Ratio (survival of striatal neurons): 0.3

## CC(C)[C@@H](C)C=C[C@@H](C)[C@H]1CC[C@H]2[C@@H]3C=CC4=CC(=NO)CC[C@]4(C)[C@H]3CC[C@]12C [Compound 15, 4.6, 22-ergosta-trien-3-one oxime]
[1]; 5 μM
  Ratio (survival rate of the motor neurons): 0.2

## picrotoxin
[3]
  effect on the stimulating GABAA transmission (postsynaptic field potentials, CA1): blocked
